Starred links: 1 amine or outer side, 2 acyl side, 3 side chain; linkers in the order of their positions; H or OH if unused. Positions of bridges follow the written chain, without caps; N, C: chain ends. Non-standard residues stand in square brackets, D forms with d. Residues, ends and D or L forms follow the SMILES beside them. Trp(1-CH2CO2Me) = COC(=O)Cn1cc(C[C@H](N)C(=O)O)c2ccccc21; Trp(1-CH2COOH) = N[C@@H](Cc1cn(CC(=O)O)c2ccccc12)C(=O)O; X4 = O=C(O)c1cc(NC(=S)[*:1])cc(NC(=S)[*:2])c1; X2 = O=C([C@H](CCNCC=[*:3])N[*:1])[*:2]; X1 = O=C([C@H](CNCC=[*:3])N[*:1])[*:2]; X3 = O=C(NCCCCCCNC(=O)[*:2])[*:1]; Hyp = O=C(O)[C@@H]1C[C@@H](O)CN1; Oxalyl = O=C(C(=O)[*:2])[*:1]; NMeNle = CCCC[C@H](NC)C(=O)O; NEtAla = CCN[C@@H](C)C(=O)O; NMeA = CN[C@@H](C)C(=O)O; Dab = NCC[C@H](N)C(=O)O; Dap = NC[C@H](N)C(=O)O
Target: T1, PD-1/PD-L1 (Homo sapiens, UniProt Q9NZQ7)
T1 construct: TVMV protease site (C); made in house; host or cells: HEK293T cells
Test: PD-1/PD-L1 Homogenous Time-Resolved Fluorescence (HTRF) binding assay
Settings: PD-L1-His 10 nM final, PD-1-Ig 20 nM final
Source text: The ability of the compounds of formula (I) to bind to PD-L1 was investigated using a PD-1/PD-L1 Homogenous Time-Resolved Fluorescence (HTRF) binding assay.
Homogenous Time-Resolved Fluorescence (HTRF) Binding Assay
The interaction of PD-1 and PD-L1 can be assessed using soluble, purified preparations of the extracellular domains of the two proteins. The PD-1 and PD-L1 protein extracellular domains were expressed as fusion proteins with detection tags, for PD-1, the tag was the Fc portion of Immunoglobulin (PD-1-Ig) and for PD-L1 it was the 6 histidine motif (PD-L1-His). All binding studies were performed in an HTRF assay buffer consisting of dPBS supplemented with 0.1% […] bovine serum albumin and 0.05% (v/v) Tween-20. For the h/PD-L1-His binding assay, inhibitors were pre-incubated with PD-L1-His (10 nM final) for 15 m in 4 μl of assay buffer, followed by addition of PD-1-Ig (20 nM final) in 1 μl of assay buffer and further incubation for 15 m. HTRF detection was achieved using europium crypate-labeled anti-Ig (1 nM final) and allophycocyanin (APC) labeled anti-His (20 nM final). Antibodies were diluted in HTRF detection buffer and 5 μl was dispensed on top of the binding reaction. The reaction mixture was allowed to equilibrate for 30 minutes and the resulting signal (665 nm/620 nm ratio) was obtained using an EnVision fluorometer. Additional binding assays were established between the human proteins PD-1-Ig/PD-L2-His (20 & 5 nM, respectively) and CD80-His/PD-L1-Ig (100 & 10 nM, respectively).
Recombinant Proteins: Human PD-1 (25-167) with a C-terminal human Fc domain of immunoglobulin G (Ig) epitope tag [hPD-1 (25-167)-3S-IG] and human PD-L1 (18-239) with a C-terminal His epitope tag [hPD-L1(18-239)-TVMV-His] were expressed in HEK293T cells and purified sequentially by ProteinA affinity chromatography and size exclusion chromatography. Human PD-L2-His and CD80-His was obtained through commercial sources.
Table 1 lists the IC50 values for representative examples of this disclosure measured in the PD-1/PD-L1 Homogenous Time-Resolved Fluorescence (HTRF) binding assay.

T1 sequence (Q9NZQ7 18-239): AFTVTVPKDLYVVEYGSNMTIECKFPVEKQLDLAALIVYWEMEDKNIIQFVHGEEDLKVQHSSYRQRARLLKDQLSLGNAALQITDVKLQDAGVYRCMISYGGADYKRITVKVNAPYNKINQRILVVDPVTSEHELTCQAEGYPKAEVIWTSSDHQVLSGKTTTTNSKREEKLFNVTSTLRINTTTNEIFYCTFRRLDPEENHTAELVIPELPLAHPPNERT

Row | IC50 | Compound
1 | 120 nM | CCCC[C@H]1C(=O)N(C)[C@@H](CCCC)C(=O)N[C@@H](CC(C)C)C(=O)N[C@H](C(=O)NCC(N)=O)CSCC(=O)N[C@@H](Cc2ccc(O)cc2)C(=O)N(C)[C@@H](C)C(=O)N[C@@H](CC(N)=O)C(=O)N2CCC[C@H]2C(=O)N[C@H]2CNC(=O)C(=O)NCC[C@H](NC(=O)[C@H](Cc3c[nH]c4ccccc34)NC(=O)[C@@H]3C[C@@H](O)CN3C(=O)[C@H](CC(C)C)NC2=O)C(=O)N[C@@H](Cc2cn(CC(=O)OC)c3ccccc23)C(=O)N1C [Example 1003] ({CH2CO}-Y[NMeA]NP[Dap]L[Hyp]W[Dab][Trp(1-CH2CO2Me)][NMeNle][NMeNle]LCG-NH2; linker 5-9 via Oxalyl; thioether N-14)
2 | 8.3 nM | CCCC[C@H]1C(=O)N(C)[C@@H](CCCC)C(=O)N[C@@H](CC(C)C)C(=O)N[C@H](C(=O)NCC(N)=O)CSCC(=O)N[C@@H](Cc2ccc(O)cc2)C(=O)N(C)[C@@H](C)C(=O)N[C@@H](CC(N)=O)C(=O)N(CC)[C@@H](C)C(=O)N[C@H]2CNC/C=C\CNCC[C@H](NC(=O)[C@H](Cc3c[nH]c4ccccc34)NC(=O)[C@@H]3C[C@@H](O)CN3C(=O)[C@H](CC(C)C)NC2=O)C(=O)N[C@@H](Cc2cn(CC(=O)O)c3ccccc23)C(=O)N1C [Example 1005] ({CH2CO}-Y[NMeA]N[NEtAla][X1]L[Hyp]W[X2][Trp(1-CH2COOH)][NMeNle][NMeNle]LCG-NH2; staple (Z) 5-9; thioether N-14)
3 | 78 nM | CCCC[C@H]1C(=O)N(C)[C@@H](CCCC)C(=O)N[C@@H](CC(C)C)C(=O)N[C@H](C(=O)NCC(N)=O)CSCC(=O)N[C@@H](Cc2ccc(O)cc2)C(=O)N(C)[C@@H](C)C(=O)N[C@@H](CC(N)=O)C(=O)N2CCC[C@H]2C(=O)N[C@H]2CNC(=S)Nc3cc(cc(C(=O)O)c3)NC(=S)NCC[C@H](NC(=O)[C@H](Cc3c[nH]c4ccccc34)NC(=O)[C@@H]3C[C@@H](O)CN3C(=O)[C@H](CC(C)C)NC2=O)C(=O)N[C@@H](Cc2cn(CC(=O)O)c3ccccc23)C(=O)N1C [Example 1007] ({CH2CO}-Y[NMeA]NP[Dap]L[Hyp]W[Dab][Trp(1-CH2COOH)][NMeNle][NMeNle]LCG-NH2; linker 5-9 via X4; thioether N-14)
4 | 4 nM | CCCC[C@H]1C(=O)N(C)[C@@H](CCCC)C(=O)N[C@@H](CC(C)C)C(=O)N[C@H](C(=O)NCC(N)=O)CSCC(=O)N[C@@H](Cc2ccc(O)cc2)C(=O)N(C)[C@@H](C)C(=O)N[C@@H](CC(N)=O)C(=O)N2CCC[C@H]2C(=O)N[C@H]2CNC(=O)NCCCCCCNC(=O)NCC[C@H](NC(=O)[C@H](Cc3c[nH]c4ccccc34)NC(=O)[C@@H]3C[C@@H](O)CN3C(=O)[C@H](CC(C)C)NC2=O)C(=O)N[C@@H](Cc2cn(CC(=O)O)c3ccccc23)C(=O)N1C [Example 1001] ({CH2CO}-Y[NMeA]NP[Dap]L[Hyp]W[Dab][Trp(1-CH2COOH)][NMeNle][NMeNle]LCG-NH2; linker 5-9 via X3; thioether N-14)
5 | 210 nM | CCCC[C@H]1C(=O)N(C)[C@@H](CCCC)C(=O)N[C@@H](CC(C)C)C(=O)N[C@H](C(=O)NCC(N)=O)CSCC(=O)N[C@@H](Cc2ccc(O)cc2)C(=O)N(C)[C@H]2CN3CC[C@H](NC(=O)[C@H](Cc4c[nH]c5ccccc45)NC(=O)[C@@H]4C[C@@H](O)CN4C(=O)[C@H](CC(C)C)NC(=O)[C@H](CNc4c3c(=O)c4=O)NC(=O)[C@@H]3CCCN3C(=O)[C@H](CC(N)=O)NC2=O)C(=O)N[C@@H](Cc2cn(CC(=O)O)c3ccccc23)C(=O)N1C [Example 1002]
6 | 11 nM | CCCC[C@H]1C(=O)N(C)[C@@H](CCCC)C(=O)N[C@@H](CC(C)C)C(=O)N[C@H](C(=O)NCC(N)=O)CSCC(=O)N[C@@H](Cc2ccc(O)cc2)C(=O)N(C)[C@@H](C)C(=O)N[C@@H](CC(N)=O)C(=O)N2CCC[C@H]2C(=O)N[C@H]2CNCC(O)COCC(O)CNCC[C@H](NC(=O)[C@H](Cc3c[nH]c4ccccc34)NC(=O)[C@@H]3C[C@@H](O)CN3C(=O)[C@H](CC(C)C)NC2=O)C(=O)N[C@@H](Cc2cn(CC(=O)O)c3ccccc23)C(=O)N1C (stereo partly drawn) [Example 1004]

Source: patent US12421278B2, “Immunomodulators” (Bristol-Myers Squibb Company, priority 2020, dated 2025)
